From US20220009914A1, “Analogs of Nitrofuran Antibiotics to Combat Resistance” (The Trustees of Indiana University, priority 2020, published 2022)
Like-named read-outs stand apart in the source and are kept apart here.

How the values were obtained:
native rhodanese = biological target: T1, native rhodanese (Bos taurus, UniProt P00586); assay: native rhodanese enzymatic activity counter-screen; format: biochemical; conditions: compounds added after refolding; read-out: Native Rho Activity IC50
T1 sequence (P00586 1-297): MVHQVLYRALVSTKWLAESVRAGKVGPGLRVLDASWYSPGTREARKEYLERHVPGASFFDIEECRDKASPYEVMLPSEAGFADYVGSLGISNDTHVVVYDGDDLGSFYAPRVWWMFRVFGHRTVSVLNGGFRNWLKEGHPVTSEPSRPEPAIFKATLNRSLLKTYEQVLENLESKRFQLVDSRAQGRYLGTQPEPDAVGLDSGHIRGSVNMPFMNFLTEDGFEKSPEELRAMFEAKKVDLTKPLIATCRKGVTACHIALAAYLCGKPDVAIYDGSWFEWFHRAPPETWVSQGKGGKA
Description: Counter-screening compounds for inhibition of native rhodanese enzymatic activity. Reagent Preparations & Assay Protocol: Reagents were identical to those used in the GroEL/ES-dRho refolding assay described above; however, the assay protocol differed in the sequence of compound addition to the wells. Compounds were pin-transferred after 50 minute incubation for the refolding cycle, but prior to the addition of the thiocyanate enzymatic assay stock. Thus, the refolding reactions were allowed to proceed for 50 min at 37° C. in the absence of test compounds, but the enzymatic activity of the refolded rhodanese reporter enzyme was monitored in the presence of test compounds (inhibitor concentration range during the enzymatic reporter reaction is 100 μM to 46 nM—3-fold dilutions). IC50 values for the rhodanese reporter enzyme were determined as described above. Results presented represent the averages of IC50 values obtained from at least four replicates.
All compounds were counter-screened for inhibiting the enzymatic activity of the native Rho reporter enzyme as per our previously reported procedure. Results presented represent the averages of IC50 values obtained from at least four replicates.

[1] = system: Staphylococcus aureus strain Seattle 1945 (ATCC #25923); assay: bacterial proliferation assay, S. aureus; format: cell-based
Description: (§1) All compounds were evaluated for inhibiting the proliferation of E. coli and each of the ESKAPE bacteria. Results presented represent the averages of EC50 values obtained from at least four replicates. Evaluating compounds for inhibition of bacterial cell proliferation.
(§2) Growth Media: E. coli were grown with LB medium and all ESKAPE bacteria were grown in Brain Heart Infusion (BHI) medium (Becton, Dickinson and Company), with all liquid cultures supplemented with 25 mg/L Ca^2+ and 12.5 mg/L Mg^2+ to mimic physiological free concentrations of these cations. A 10 mg/mL Ca^2+ stock solution was prepared by dissolving 1.84 g of CaCl2.2H2O in 50 mL of deionized water, and a 10 mg/mL Mg^2+ stock solution was prepared by dissolving 4.18 g of MgCl2.6H2O in 50 mL deionized water—filter sterilized using 0.2 μm cellulose-acetate filters. 2.5 mL of the sterile 10 mg/mL Ca^2+ stock and 1.25 mL of the sterile 10 mg/mL Mg^2+ stock solutions were added per 1 L of autoclaved LB or BHI media to obtain 25 mg/L Ca^2+ and 12.5 mg/L Mg^2+ ions, respectively.
(§3) General Assay Protocol: Stock bacterial cultures were streaked onto LB or BHI agar plates and grown overnight at 37° C. Fresh aliquots of cation supplemented media were inoculated with single bacterial colonies and the cultures were grown overnight at 37° C. with shaking (240 rpm). The following morning, cultures were diluted 10-fold into fresh media and grown at 37° C. until bacteria had reached mid-log phase growth (OD600˜0.4-0.6). The cultures were then diluted into fresh media to achieve final OD600 readings of 0.017. Aliquots of these diluted cultures (30 μL) were added to clear, flat-bottom 384-well polystyrene plates that were previously stamped with 0.5 μL of test compounds in 20 μL of media (yielding initial OD600=0.01 bacterial cultures). All compounds were tested in dose-response with concentration ranges during the proliferation assays from 100 μM to 46 nM (3-fold dilution series). A second set of baseline control plates were prepared analogously, but without any bacteria added, to correct for possible compound absorbance and/or precipitation. […] Plates were then read at 600 nm using a Molecular Devices SpectraMax Plus384 microplate reader. […] Results presented represent the averages of EC50 values obtained from at least four replicates.
(§4) Evaluating analogs for inhibiting the growth of E. coli and the ESKAPE bacteria. Analogs were initially tested for antibacterial efficacy against representative strains of antibiotic-sensitive E. coli and the ESKAPE bacteria. To determine compound efficacy, bacterial proliferation assays were carried out in liquid media culture supplemented with physiological concentrations of free calcium and magnesium cations. For these assays, bacterial cultures (OD600=0.01) were exposed to test compounds in 8-point, 3-fold dilution series (100 μM to 46 nM concentration range), in 384-well plates. After addition of compounds to cultures, the plates were sealed with Breathe-Easy gas permeable membranes and allowed to grow to mid-log phase (OD600˜0.4-0.6), whereupon final OD600 readings were taken to assess for bacterial growth and inhibition.

[2] = system: Klebsiella pneumoniae strain NCTC 9633 (ATCC #13883); assay: bacterial proliferation assay, K. pneumoniae; format: cell-based; conditions: for EC50: read-out: Bacterial Proliferation EC50 K. pneumoniae
Description: as §1, §2, §3, §4

[3] = system: Acinetobacter baumannii strain 2208 (ATCC 19606); assay: bacterial proliferation assay, A. baumannii; format: cell-based; conditions: ATCC19606, read-out: Bacterial Proliferation EC50 A. baumannii
Description: as §1, §2, §3, §4

[4] = system: NEB 5-alpha Escherichia coli; assay: bacterial proliferation assay, E. coli; format: cell-based; conditions: for EC50: read-out: Bacterial Proliferation EC50 E. coli
Description: as §1, §2, §3, §4

[5] = Staphylococcus aureus, ATCC25923; read-out: Bacterial Proliferation EC50 S. aureus

SMILES | IC50 (native rhodanese) [µM] | EC50 [1, 5] [µM] | EC50 ([2]; Klebsiella pneumoniae) [µM] | EC50 [3] [µM] | EC50 ([4]; Escherichia coli) [µM] | EC50 ([1]; Staphylococcus aureus, ATCC25923, read-out: Bacterial Proliferation EC50 S. aureus) [µM] | EC50 [4] [µM] | EC50 ([1]; read-out: Bacterial Proliferation EC50 S. aureus) [µM] | EC50 [2] [µM] | inhibition of K. pneumoniae in words [2] | inhibition of E. coli proliferation in words [4]
O=C(N/N=C/c1ccc(O)c2ncccc12)c1ccc(NS(=O)(=O)c2cccs2)cc1 [Compound 13, N-(4-(2-((8-hydroxyquinolin-5-yl)methylene)hydrazine-1-carbonyl)phenyl)thiophene-2-sulfonamide] | > 100 | > 100 | > 100 | > 100 | > 100 |  |  |  |  |  | 
O=C(N/N=C/c1ccc(O)c2ncccc12)c1cccc2ccccc12 [Compound 9, N′-((8-hydroxyquinolin-5-yl)methylene)-1-naphthohydrazide] | 97 | 56 | > 100 | > 100 | > 100 |  |  |  |  |  | 
O=C(N/N=C/c1ccc([N+](=O)[O-])o1)c1ccccc1Oc1ccccc1 [Compound 23, N′-((5-nitrofuran-2-yl)methylene)-2-phenoxybenzohydrazide] | 43 | 5.2 | > 100 | > 100 | > 100 |  |  |  |  |  | 
COc1ccc(C(=O)N/N=C/c2ccccc2)cc1 [Compound 37, N′-benzylidene-4-methoxybenzohydrazide] | > 100 | > 100 | > 100 | > 100 | > 100 |  |  |  |  |  | 
O=C(N/N=C/c1ccc(O)c2ncccc12)c1ccccc1 [Compound 5, N′-((8-hydroxyquinolin-5-yl)methylene)benzohydrazide] | 95 | 69 | 82 | 56 | 63 |  |  |  |  |  | 
O=C(N/N=C/c1ccc(O)c2ncccc12)c1cccc(Oc2ccccc2)c1 [Compound 11, N′-((8-hydroxyquinolin-5-yl)methylene)-3-phenoxybenzohydrazide] | 85 | > 100 | > 100 | > 100 | > 100 |  |  |  |  |  | 
O=Cc1ccc(O)c2ncccc12 [Compound 40, reference compound] | 18 | 19 | 15 | 11 | 14 |  |  |  |  |  | 
O=C(N/N=C/c1ccc([N+](=O)[O-])o1)c1ccc(NS(=O)(=O)c2cccs2)cc1 [Compound 26, N-(4-(2-((5-nitrofuran-2-yl)methylene)hydrazine-1-carbonyl)phenyl)thiophene-2-sulfonamide] | 44 | 11 | > 100 | > 100 | 17 |  |  |  |  |  | 
O=C(N/N=C/c1ccc(O)c2ncccc12)c1ccc(NS(=O)(=O)c2ccc(Br)cc2)cc1 [Compound 14, 4-bromo-N-(4-(2-((8-hydroxyquinolin-5-yl)methylene)hydrazine-1-carbonyl)phenyl)benzenesulfonamide] | > 100 |  | > 100 | 84 | ≥ 100 | > 100 | > 100 |  |  |  | 
COc1ccc(C(=O)N/N=C/c2ccc(O)c3ccccc23)cc1 [Compound 29, N′-((4-hydroxynaphthalen-1-yl)methylene)-4-methoxybenzohydrazide] | 66 | > 100 | > 100 | > 100 | > 100 |  |  |  |  |  | 
CCN(CC)S(=O)(=O)c1cccc(C(=O)N/N=C/c2ccc([N+](=O)[O-])o2)c1 [Compound 25, N,N-diethyl-3-(2-((5-nitrofuran-2-yl)methylene)hydrazine-1-carbonyl)benzenesulfonamide] | > 100 | 9.6 | > 100 | > 100 | > 100 |  |  |  |  |  | 
CCOc1ccc(S(=O)(=O)Nc2ccc(C(=O)N/N=C/c3ccc(O)c4ncccc34)cc2)cc1 [Compound 15, 4-ethoxy-N-(4-(2-((8-hydroxyquinolin-5-yl)methylene)hydrazine-1-carbonyl)phenyl)benzenesulfonamide] | > 100 | > 100 | > 100 | > 100 | > 100 |  |  |  |  |  | 
COc1ccc(C(=O)N/N=C/c2ccc(O)c3ncccc23)cc1 [Compound 1, N′-((8-hydroxyquinolin-5-yl)methylene)-4-methoxybenzohydrazide] | 98 |  |  | > 100 | > 100 |  |  | 87 | 85 |  | 
O=C(N/N=C/c1ccc([N+](=O)[O-])o1)c1ccc(Cl)s1 [Compound 17, 5-chloro-N′-((5-nitrofuran-2-yl)methylene)thiophene-2-carbohydrazide] | 56 | 3 | 19 | 72 |  |  | 0.45 |  |  | moderate inhibitors | potent inhibitors
COc1ccc(C(=O)NN)cc1 [Compound 42, reference compound] | > 100 | > 100 | > 100 | > 100 | > 100 |  |  |  |  |  | 
O=C(N/N=C/c1ccc(O)cc1)c1ccccc1 [Compound 36, N′-(4-hydroxybenzylidene)benzohydrazide] | > 100 | > 100 | > 100 | > 100 | > 100 |  |  |  |  |  | 
CN(C)c1ccc(C(=O)N/N=C/c2ccc(O)c3ncccc23)cc1 [Compound 8, 4-(dimethylamino)-N′-((8-hydroxyquinolin-5-yl)methylene)benzohydrazide] | 67 | 99 | > 100 | > 100 | 93 |  |  |  |  |  | 
O=C(N/N=C/c1ccc(O)c2ncccc12)c1cccs1 [Compound 3, N′-((8-hydroxyquinolin-5-yl)methylene)thiophene-2-carbohydrazide] | 87 | 63 | 99 | 74 | 77 |  |  |  |  |  | 
COc1ccc(C(=O)N/N=C/c2ccc(O)cc2)cc1 [Compound 35, N′-(4-hydroxybenzylidene)-4-methoxybenzohydrazide] | > 100 | > 100 | > 100 | > 100 | > 100 |  |  |  |  |  | 
O=C(N/N=C/c1ccc(O)c2ncccc12)c1ccncc1 [Compound 6, N′-((8-hydroxyquinolin-5-yl)methylene)isonicotinohydrazide] | > 100 | > 100 | > 100 | > 100 | 79 |  |  |  |  |  | 
